Laboratory results published in US20120277312A1, “Ethylgallate and Related Compounds as a Treatment for Sepsis and Septic Shock” (priority 2009, published 2012).
Marks after values point to notes of the source that are not given here.

Test system: Escherichia coli septic shock in dogs
Assay: In-vivo model of Escherichia coli septic shock in dogs
Design: species or system dog
Settings: for PCO2: arterial; for Urine-volume: per hour
From the text: We have thus far studied 5 dogs in septic shock in which ethyl gallate was infused. We have compared the results obtained in this group with those found in septic animals (n=5) in which this treatment was not given. In addition, in preliminary experiments, we have looked at the effect of ethyl gallate infusion on hemodynamics in non-septic animals (n=3). In a time control non-septic group in which placebo (normal saline solution) was given, we have studied one animal.
The E coli model used in the studies was identical to that previously described (2). Sepsis was induced by the intravenous infusion of 10^10 colony forming units of live E coli (designation 011:B4). The bacteria were suspended in normal saline solution and were given over 0.5 hour. A constant infusion of approximately 5×10^9 colony forming units/hour of E coli was then maintained over the duration of the two studies.
The animals (16-24 kg) were initially anesthetized with thiopental sodium (20 mg/kg, intravenously) and constantly infused with sufentanil citrate (1-3 μg/min) and midazolam (5 μg/kg/min) (2). Drug rates were adjusted as required to abolish the palpebral reflex. The animals were placed in the supine position; the trachea was […] with an endotracheal tube; and the lungs were mechanically ventilated at a tidal volume of 20 ml/kg. The ventilator rate was initially set to maintain blood pH at approximately 7.35. The rate was increased as necessary to reverse the metabolic acidosis that developed over the course of the study. Approximately 100% oxygen was inspired, so that hypoxemia would not affect the results of the study.
Under sterile conditions and by percutaneous techniques (Arrow International, Reading, Pa.) (2), a thermister tipped catheter was advanced from the right jugular vein into the pulmonary artery to measure mean pulmonary arterial pressure (Ppa), mean pulmonary capillary wedge pressure (Pwp), mean right atrial pressure (Rap), and thermodilution cardiac output (CO) (Edwards Lifesciences, Irvine, Calif.). Another introducer was placed into the left jugular vein for administration of intravenous saline solution, the E coli infusion, and the treatment or placebo drugs. A catheter was placed into the bladder through the urethra to measure urine output over the course of the study. A polyethylene catheter was percutaneously placed into the femoral artery to measure MAP and to obtain samples of blood for arterial PO2, PCO2, pH, hematocrit (Hct), serum electrolytes and creatinine, liver function tests, and lactate concentrations. The laboratory tests were performed by the clinical laboratories at the Health Sciences Centre.
All vascular catheters were connected to transducers (Cobe, Argon Medical Devices Inc, Athens, Tex.), were referenced relative to the left atrium, and were connected to a chart recorder (Astro-Med, W Warwick, R.I.) (2). Heart rate (HR) was measured from the recorder tracing. Stroke-volume (SV) was calculated as CO/HR. Systemic vascular resistance (SVR) was calculated from [(MAP−Pra)/CO]*80.
Stroke work (SW) was our primary index of cardiac performance and the primary hemodynamic endpoint chosen (2). At constant preload, SW reflects both the decrease in afterload and the change in contractile function that accompany sepsis. SW was determined at approximately the same Pwp at each measurement interval. The baseline Pwp usually averaged ≈8-10 mmHg, and normal saline solution was given as necessary to maintain Pwp constant over the experimental period. SW was calculated from SV*(MAP−Pwp).
The purpose of this study was to determine whether ethyl-gallate could reverse the fall in MAP that occurs in this sepsis model. Ethyl gallate was infused after MAP pressure fell approximately 30 to 40% from the baseline value in which this decline in MAP was not responsive to volume infusion to return Pwp to the baseline value (septic shock condition). […]

[1] = septic dogs n = 5, 3 hrs post treatment
[2] = septic dogs n = 5, 5 hrs post treatment
[3] = septic dogs n = 5, Baseline (before sepsis and treatment)
[4] = septic dogs n = 5, septic shock (before treatment)
[5] = septic dogs n = 5, 1 hr post treatment
[6] = septic dogs n = 5, 2 hrs post treatment
[7] = septic dogs n = 5, 4 hrs post treatment
[8] = septic dogs, ethyl-gallate treated group

With `CCOC(=O)c1cc(O)c(O)c(O)c1` [ethyl gallate] the “duration of increase in mean arterial pressure after bolus” value (2 gram intravenous bolus after 5 hours of septic shock, one animal) was “over 75 minutes”, the PCO2 [1] was 21 ± 2*# mmHg and the PCO2 [2] was 19 ± 2* mmHg. The PCO2 [3] was 29 ± 4 mmHg, the PCO2 [4] was 27 ± 4 mmHg and the “duration of increase in MAP after bolus” value (bolus after the study was completed, one animal of placebo group) was “over 1 hr”. For the same compound, the “time in which infusion increased arterial pressure” value (individual septic dog, FIG. 2) was “approximately 18 minutes”, the Urine-volume [5] was 67 ± 58 mL and the Urine-volume [6] was 42 ± 19 mL. For the same compound, the Urine-volume [1] was 42 ± 19 mL, the Urine-volume [7] was 36 ± 26 mL and the Urine-volume [2] was 36 ± 26 mL. The Urine-volume [4] was 45 ± 34 mL, the “dogs that died over the course of the study” value (septic dogs) was “None” and the HR [5] was 116 ± 47 beats/min. For the same compound, the Ppa [5] was 18 ± 4.8 mmHg, the Rap [5] was 8 ± 1.3 mmHg and the HR [6] was 111 ± 33 beats/min. It also gave a Ppa [6] of 18 ± 5 mmHg, a Rap [6] of 8.6 ± 1.7 mmHg and an ALT [1] of 210 ± 90 IU. For the same compound, the AST [1] was 268 ± 162 IU, the “Alk P'tase” value [1] was 54 ± 36 international units and the “Arterial pH” value [1] was 7.21 ± .08*. For the same compound, the HR [1] was 107 ± 34 beats/min, the LD [1] was 253 ± 172* IU and the Platelets [1] was 100 ± 37* ×10^9/L. The Ppa [1] was 21 ± 6 mmHg, the Rap [1] was 8.8 ± 0.8 mmHg and the WBC [1] was 2.1 ± 1.9 ×10^9/L. The bilirubin [1] was 11 ± 4.5* mmol/L, the chloride [1] was 130 ± 6* mmol/L and the glucose [1] was 4.4 ± 1.5 mmol/L. The sodium [1] was 152 ± 5 mmol/L, the “total CO2” value [1] was 14 ± 2* mmol/L and the HR [7] was 115 ± 36 beats/min. It also gave a Ppa [7] of 21 ± 9 mmHg, a Rap [7] of 9.2 ± 1.1 mmHg and an ALT [2] of 236 ± 56 IU. For the same compound, the AST [2] was 337 ± 141 IU, the “Alk P'tase” value [2] was 91 ± 39* international units and the “Arterial pH” value [2] was 7.14 ± .06*. The HR [2] was 110 ± 34 beats/min, the LD [2] was 335 ± 175* IU and the Platelets [2] was 74 ± 21* ×10^9/L. For the same compound, the Ppa [2] was 23 ± 7* mmHg, the Rap [2] was 8.6 ± 1.3 mmHg and the WBC [2] was 2.64 ± 2.3 ×10^9/L. For the same compound, the chloride [2] was 130 ± 7* mmol/L, the glucose [2] was 3.6 ± 2.2 mmol/L and the sodium [2] was 153 ± 6 mmol/L. For the same compound, the “total CO2” value [2] was 14 ± 2* mmol/L, the ALT [3] was 52 ± 20 IU and the AST [3] was 18 ± 4 IU. For the same compound, the “Alk P'tase” value [3] was 31 ± 11 international units, the HR [3] was 59 ± 8* beats/min and the LD [3] was 26 ± 4 IU. The Platelets [3] was 196 ± 18 ×10^9/L, the Ppa [3] was 16 ± 1.3 mmHg and the Rap [3] was 9 ± 1.2 mmHg. For the same compound, the WBC [3] was 3.2 ± 1.9 ×10^9/L, the chloride [3] was 118 ± 3 mmol/L and the glucose [3] was 5.5 ± 0.3 mmol/L. The sodium [3] was 151 ± 2 mmol/L, the “total CO2” value [3] was 21 ± 3 mmol/L and the ALT [4] was 139 ± 116 IU. The AST [4] was 137 ± 130 IU, the “Alk P'tase” value [4] was 41 ± 27 international units and the “Arterial pH” value [4] was 7.26 ± .06*. The HR [4] was 145 ± 33 beats/min, the LD [4] was 128 ± 82 IU and the Platelets [4] was 117 ± 27* ×10^9/L. For the same compound, the Ppa [4] was 15 ± 2.3 mmHg, the Rap [4] was 7 ± 1.3 mmHg and the WBC [4] was 1.3 ± 0.7 ×10^9/L. The chloride [4] was 123 ± 8*+ mmol/L, the glucose [4] was 5.3 ± 0.3 mmol/L and the sodium [4] was 150 ± 7+ mmol/L. The “total CO2” value [4] was 18 ± 2* mmol/L, the urine output (septic dogs, between the two groups) was “no difference” and the “mean arterial pressure (MAP)” value (septic dogs, by 1 hour post-treatment, remained over the course of study) was “returned to the baseline value”. The serum haemoglobin concentration (septic dogs, end of the study, vs non-ethyl gallate treated group) was “higher”, the “time post infusion by which increase in MAP was evident” value (septic dogs, ethyl gallate infusion) was at most 20 min and the “cardiac output (CO)” value [8] was “did not fall”. For the same compound, the “stroke volume (SV)” value [8] was “did not fall”, the “stroke work (SW)” value (septic dogs, over the 5 post-treatment measurement intervals, vs non-treated group) was “generally higher” and the serum creatinine (septic dogs, over the course of the study) was “decreased”. For the same compound, the “creatine kinase (CK), evidence of rhabdomyolysis” value (septic dogs, vs non-treated group) was “less”, the “normal saline required to maintain Pwp at the baseline value” (septic dogs, vs 4.7±0.8 L in non-treated group, P<0.05) was 3.38 ± 0.8 L and the “systemic vascular resistance (SVR)” value (septic dogs, vs septic shock condition and vs non-treated septic group) was “significantly increased”.
